Experiments:
Format in all cases: in vivo
[1] = test system: oilseed rape (Brassica napus); assay: Test C preemergence; settings: Brassica napus, pre-emergence, scale 0 to 100, read-out: Plant response rating, Oilseed Rape
How it was run: (§1)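 After preemergence treatment of seeds in loam-sand soil or foliar treatment at the 1- to 4-leaf stage of plants in peat/vermiculite medium, pots were kept 13-15 days in the greenhouse. Each was then scored visually, 0 meaning no effect and 100 complete control.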

[2] = test system: large (Lg) crabgrass (Digitaria sanguinalis); assay: Test C preemergence; settings: Digitaria sanguinalis, pre-emergence, 336 h, scale 0 to 100, read-out: Plant response rating, Crabgrass, Large
How it was run: as §1

[3] = test system: corn (Zea mays); assay: Test C preemergence; settings: Zea mays, pre-emergence, 336 h, scale 0 to 100
How it was run: as §1

[4] = test system: Italian ryegrass (Lolium multiflorum); assay: Test C preemergence; settings: Lolium multiflorum, pre-emergence, 336 h, scale 0 to 100, read-out: Plant response rating, Ryegrass, Italian
How it was run: as §1

[5] = test system: blackgrass (Alopecurus myosuroides); assay: Test C preemergence; settings: Alopecurus myosuroides, pre-emergence, 336 h, scale 0 to 100, read-out: Plant response rating, Blackgrass
How it was run: as §1

[6] = test system: giant foxtail (Setaria faberii); assay: Test C preemergence; settings: Setaria faberi, pre-emergence, 336 h, scale 0 to 100, read-out: Plant response rating, Foxtail, Giant
How it was run: as §1

[7] = test system: ragweed (common ragweed, Ambrosia elatior); assay: Test C preemergence; settings: Ambrosia artemisiifolia, pre-emergence, 336 h, scale 0 to 100, read-out: Plant response rating, Ragweed
How it was run: as §1

[8] = test system: yellow nutsedge (Cyperus esculentus); assay: Test C preemergence; settings: Cyperus, pre-emergence, 336 h, scale 0 to 100, read-out: Plant response rating, Nutsedge, Yellow
How it was run: as §1

[9] = test system: galium (catchweed bedstraw, Galium aparine); assay: Test C preemergence; settings: Galium, pre-emergence, 336 h, scale 0 to 100, read-out: Plant response rating, Galium
How it was run: as §1

[10] = test system: morningglory (Ipomoea coccinea); assay: Test C preemergence; settings: Ipomoea, pre-emergence, 336 h, scale 0 to 100, read-out: Plant response rating, Morningglory
How it was run: as §1

[11] = test system: pigweed (Amaranthus retroflexus); assay: Test C preemergence; settings: Amaranthus retroflexus, pre-emergence, 336 h, scale 0 to 100, read-out: Plant response rating, Pigweed
How it was run: as §1

[12] = test system: waterhemp (common waterhemp, Amaranthus rudis); assay: Test C preemergence; settings: Amaranthus tuberculatus, pre-emergence, scale 0 to 100, read-out: Plant response rating, Waterhemp
How it was run: as §1

[13] = test system: winter wheat (Triticum aestivum); assay: Test C preemergence; settings: Triticum aestivum, pre-emergence, 336 h, scale 0 to 100, read-out: Plant response rating, Wheat
How it was run: as §1

[14] = test system: velvetleaf (Abutilon theophrasti); assay: Test C preemergence; settings: Abutilon theophrasti, pre-emergence, scale 0 to 100, read-out: Plant response rating, Velvetleaf
How it was run: as §1

[15] = test system: johnsongrass (Sorghum halepense); assay: Test C preemergence; settings: Sorghum halepense, pre-emergence, 336 h, scale 0 to 100, read-out: Plant response rating, Johnsongrass
How it was run: as §1

[16] = test system: soybean (Glycine max); assay: Test C preemergence; settings: Glycine max, pre-emergence, scale 0 to 100, read-out: Plant response rating, Soybean
How it was run: as §1

[17] = test system: blackgrass (Alopecurus myosuroides); assay: Test C postemergence; settings: Alopecurus myosuroides, post-emergence, 336 h, Postemergence, scale 0 to 100, read-out: Plant response rating, Blackgrass
How it was run: as §1

[18] = test system: giant foxtail (Setaria faberii); assay: Test C postemergence; settings: Setaria faberi, post-emergence, 336 h, Postemergence, scale 0 to 100, read-out: Plant response rating, Foxtail, Giant
How it was run: as §1

[19] = test system: yellow nutsedge (Cyperus esculentus); assay: Test C postemergence; settings: Cyperus, post-emergence, 336 h, Postemergence, scale 0 to 100, read-out: Plant response rating, Nutsedge, Yellow
How it was run: as §1

[20] = test system: chickweed (common chickweed, Stellaria media); assay: Test C postemergence; settings: Stellaria media, post-emergence, Postemergence, scale 0 to 100, read-out: Plant response rating, Chickweed
How it was run: as §1

[21] = test system: velvetleaf (Abutilon theophrasti); assay: Test C postemergence; settings: Abutilon theophrasti, post-emergence, Postemergence, scale 0 to 100, read-out: Plant response rating, Velvetleaf
How it was run: as §1

[22] = test system: lambsquarters (Chenopodium album); assay: Test C postemergence; settings: Chenopodium album, post-emergence, 336 h, Postemergence, scale 0 to 100, read-out: Plant response rating, Lambsquarters
How it was run: as §1

With `Fc1cccc(Oc2ncc(Cl)cn2)c1Oc1ncc(C(F)(F)F)cn1` [Compound 43, 5-chloro-2-[5-fluoro-6-[[5-(trifluoromethyl)-2-pyrimidinyl]oxy]phenoxy]pyrimidine] the plant injury at 31 g/ha ([1]; 31 g ai/ha, preemergence) was 100%, the plant injury at 62 g/ha ([1]; 62 g ai/ha, preemergence) was 100% and the plant injury at 125 g/ha ([1]; 125 g ai/ha, preemergence) was 100%. The plant injury at 16 g/ha ([1]; Preemergence, 16 g ai/ha) was 95%, the pest or weed control at 31 g/ha ([2]; 31 g ai/ha, preemergence) was 100% and the pest or weed control at 62 g/ha ([2]; 62 g ai/ha, preemergence) was 100%. The pest or weed control at 125 g/ha ([2]; 125 g ai/ha, preemergence) was 100%, the pest or weed control at 16 g/ha ([2]; Preemergence, 16 g ai/ha) was 100% and the Corn plant response rating (crop injury, 0 = no effect, 100 = complete kill) at 31 g/ha ([3]; 31 g ai/ha, preemergence) was 20%. The Corn plant response rating (crop injury, 0 = no effect, 100 = complete kill) at 62 g/ha ([3]; 62 g ai/ha, preemergence) was 65%, the Corn plant response rating (crop injury, 0 = no effect, 100 = complete kill) at 125 g/ha ([3]; 125 g ai/ha, preemergence) was 90% and the Corn plant response rating (crop injury, 0 = no effect, 100 = complete kill) at 16 g/ha ([3]; Preemergence, 16 g ai/ha) was 20%. For the same compound, the pest or weed control at 31 g/ha ([4]; 31 g ai/ha, preemergence) was 50%, the pest or weed control at 62 g/ha ([4]; 62 g ai/ha, preemergence) was 85% and the pest or weed control at 125 g/ha ([4]; 125 g ai/ha, preemergence) was 95%. It also gave a pest or weed control at 16 g/ha ([4]; Preemergence, 16 g ai/ha) of 5%, a pest or weed control at 31 g/ha ([5]; 31 g ai/ha, preemergence) of 50% and a pest or weed control at 62 g/ha ([5]; 62 g ai/ha, preemergence) of 90%. It also gave a pest or weed control at 125 g/ha ([5]; 125 g ai/ha, preemergence) of 95%, a pest or weed control at 16 g/ha ([5]; Preemergence, 16 g ai/ha) of 40% and a pest or weed control at 31 g/ha ([6]; 31 g ai/ha, preemergence) of 100%. For the same compound, the pest or weed control at 62 g/ha ([6]; 62 g ai/ha, preemergence) was 100%, the pest or weed control at 125 g/ha ([6]; 125 g ai/ha, preemergence) was 100% and the pest or weed control at 16 g/ha ([6]; Preemergence, 16 g ai/ha) was 95%. For the same compound, the pest or weed control at 31 g/ha ([7]; 31 g ai/ha, preemergence) was 80%, the pest or weed control at 62 g/ha ([7]; 62 g ai/ha, preemergence) was 100% and the pest or weed control at 125 g/ha ([7]; 125 g ai/ha, preemergence) was 90%. The pest or weed control at 16 g/ha ([7]; Preemergence, 16 g ai/ha) was 35%, the pest or weed control at 31 g/ha ([8]; 31 g ai/ha, preemergence) was 0% and the pest or weed control at 62 g/ha ([8]; 62 g ai/ha, preemergence) was 35%. The pest or weed control at 125 g/ha ([8]; 125 g ai/ha, preemergence) was 60%, the pest or weed control at 16 g/ha ([8]; Preemergence, 16 g ai/ha) was 100% and the pest or weed control at 31 g/ha ([9]; 31 g ai/ha, preemergence) was 95%. It also gave a pest or weed control at 62 g/ha ([9]; 62 g ai/ha, preemergence) of 100%, a pest or weed control at 125 g/ha ([9]; 125 g ai/ha, preemergence) of 100% and a pest or weed control at 16 g/ha ([9]; Preemergence, 16 g ai/ha) of 95%. It also gave a pest or weed control at 31 g/ha ([10]; 31 g ai/ha, preemergence) of 85%, a pest or weed control at 62 g/ha ([10]; 62 g ai/ha, preemergence) of 100% and a pest or weed control at 125 g/ha ([10]; 125 g ai/ha, preemergence) of 100%. For the same compound, the pest or weed control at 16 g/ha ([10]; Preemergence, 16 g ai/ha) was 70%, the pest or weed control at 31 g/ha ([11]; 31 g ai/ha, preemergence) was 100% and the pest or weed control at 62 g/ha ([11]; 62 g ai/ha, preemergence) was 100%. The pest or weed control at 125 g/ha ([11]; 125 g ai/ha, preemergence) was 100%, the pest or weed control at 16 g/ha ([11]; Preemergence, 16 g ai/ha) was 100% and the pest or weed control at 31 g/ha ([12]; 31 g ai/ha, preemergence) was 100%. The pest or weed control at 62 g/ha ([12]; 62 g ai/ha, preemergence) was 100%, the pest or weed control at 125 g/ha ([12]; 125 g ai/ha, preemergence) was 100% and the pest or weed control at 16 g/ha ([12]; Preemergence, 16 g ai/ha) was 85%. The plant injury at 31 g/ha ([13]; 31 g ai/ha, preemergence) was 25%, the plant injury at 62 g/ha ([13]; 62 g ai/ha, preemergence) was 40% and the plant injury at 125 g/ha ([13]; 125 g ai/ha, preemergence) was 90%. It also gave a plant injury at 16 g/ha ([13]; Preemergence, 16 g ai/ha) of 5%, a pest or weed control at 31 g/ha ([14]; 31 g ai/ha, preemergence) of 100% and a pest or weed control at 62 g/ha ([14]; 62 g ai/ha, preemergence) of 100%. It also gave a pest or weed control at 125 g/ha ([14]; 125 g ai/ha, preemergence) of 100%, a pest or weed control at 16 g/ha ([14]; Preemergence, 16 g ai/ha) of 100% and a pest or weed control at 31 g/ha ([15]; 31 g ai/ha, preemergence) of 75%. It also gave a pest or weed control at 62 g/ha ([15]; 62 g ai/ha, preemergence) of 100%, a pest or weed control at 125 g/ha ([15]; 125 g ai/ha, preemergence) of 100% and a pest or weed control at 16 g/ha ([15]; Preemergence, 16 g ai/ha) of 20%. For the same compound, the plant injury at 31 g/ha ([16]; 31 g ai/ha, preemergence) was 45%, the plant injury at 62 g/ha ([16]; 62 g ai/ha, preemergence) was 75% and the plant injury at 125 g/ha ([16]; 125 g ai/ha, preemergence) was 90%. It also gave a plant injury at 16 g/ha ([16]; Preemergence, 16 g ai/ha) of 30%, a pest or weed control at 16 g/ha ([17]; 16 g ai/ha) of 0% and a pest or weed control at 31 g/ha ([17]; 31 g ai/ha) of 30%. The pest or weed control at 62 g/ha ([17]; 62 g ai/ha) was 75%, the pest or weed control at 125 g/ha ([17]; 125 g ai/ha) was 95% and the pest or weed control at 16 g/ha ([18]; 16 g ai/ha) was 5%. The pest or weed control at 31 g/ha ([18]; 31 g ai/ha) was 5%, the pest or weed control at 62 g/ha ([18]; 62 g ai/ha) was 15% and the pest or weed control at 125 g/ha ([18]; 125 g ai/ha) was 35%. For the same compound, the pest or weed control at 31 g/ha ([19]; 31 g ai/ha) was 0%, the pest or weed control at 62 g/ha ([19]; 62 g ai/ha) was 0% and the pest or weed control at 125 g/ha ([19]; 125 g ai/ha) was 5%. It also gave a pest or weed control at 16 g/ha ([20]; 16 g ai/ha) of 40%, a pest or weed control at 31 g/ha ([20]; 31 g ai/ha) of 70% and a pest or weed control at 62 g/ha ([20]; 62 g ai/ha) of 70%. For the same compound, the pest or weed control at 125 g/ha ([20]; 125 g ai/ha) was 100%, the pest or weed control at 31 g/ha ([21]; 31 g ai/ha) was 55% and the pest or weed control at 62 g/ha ([21]; 62 g ai/ha) was 75%. For the same compound, the pest or weed control at 125 g/ha ([21]; 125 g ai/ha) was 85%, the pest or weed control at 16 g/ha ([22]; 16 g ai/ha) was 60% and the pest or weed control at 31 g/ha ([22]; 31 g ai/ha) was 80%. The pest or weed control at 62 g/ha ([22]; 62 g ai/ha) was 90% and the pest or weed control at 125 g/ha ([22]; 125 g ai/ha) was 95%.

From patent US20170190671A1, “BIS(ARYL)CATECHOL DERIVATIVES AS HERBICIDES” (E I DU PONT DE NEMOURS AND COMPANY, priority 2014, published 2017)
